In US7345009B2, “Substituted 4-hetaryl-pyrazolines as pest control agents” (Bayer CropScience AG, priority 2002, dated 2008):
Values belong to the compound of their own block, whether it stands above or below them.

How the values were obtained:
[1] = logP determination by reversed-phase HPLC (EEC directive 79/831 Annex V.A8), pH 2.3; type: physicochemical; settings: reversed-phase HPLC column (C18), HPLC C18, 43° C., Preparation Examples
Protocol: The logP values given in the tables and Preparation Examples above are determined in accordance with EEC directive 79/831 Annex V.A8 by HPLC (High Performance Liquid Chromatography) using a reversed-phase column (C 18). Temperature: 43° C.
The determination is carried out in the acidic range at pH 2.3 using the mobile phases 0.1% aqueous phosphoric acid and acetonitrile; linear gradient from 10% acetonitrile to 90% acetonitrile.
Calibration is carried out using unbranched alkan-2-ones (of 3 to 16 carbon atoms) with known logP values (determination of the logP values by retention times using linear interpolation between two successive alkanones).

[2] = system: caterpillars of the army worm (Spodoptera exigua); assay: Spodoptera exigua test (Example E); type: in vivo; settings: 500 ppm active compound; after 7 days; cabbage leaves dipped
Protocol: (§1) Solvent: 7 parts by weight of dimethylformamide
(§2) Emulsifier: 2 parts by weight of alkylaryl polyglycol ether
(§3) To produce a suitable preparation of active compound, 1 part by weight of active compound is mixed with the stated amounts of solvent and emulsifier, and the concentrate is diluted with emulsifier-containing water to the desired concentration.
Cabbage leaves (Brassica oleracea) are treated by being dipped into the preparation of active compound of the desired concentration and are populated with caterpillars of the army worm (Spodoptera exigua) while the leaves are still moist.
(§4) After the desired period of time, the kill in % is determined. 100% means that all caterpillars have been killed; 0% means that none of the caterpillars have been killed.

[3] = system: larvae of the mustard beetle (Phaedon cochleariae); assay: Phaedon larvae test (Example C); type: in vivo; settings: 500 ppm active compound; after 7 days; cabbage leaves dipped
Protocol: Phaedon larvae Test Solvent: 7 parts by weight of dimethylformamide Emulsifier: 2 parts by weight of alkylaryl polyglycol ether To produce a suitable preparation of active compound, 1 part by weight of active compound is mixed with the stated amounts of solvent and emulsifier, and the concentrate is diluted with emulsifier-containing water to the desired concentration. Cabbage leaves (Brassica oleracea) are treated by being dipped into the preparation of active compound of the desired concentration and are populated with larvae of the mustard beetle (Phaedon cochleariae) while the leaves are still moist.

[4] = system: caterpillars of the army worm (Spodoptera frugiperda); assay: Spodoptera frugiperda test (Example F); type: in vivo; settings: 500 ppm active compound; after 7 days; cabbage leaves dipped
Protocol: Spodoptera frugiperda Test
as §1, §2, §3
Cabbage leaves (Brassica oleracea) are treated by being dipped into the preparation of active compound of the desired concentration and are populated with caterpillars of the army worm (Spodoptera frugiperda) while the leaves are still moist.
as §4

[5] = system: Heliothis virescens caterpillars; assay: Heliothis virescens test (Example B); type: in vivo; settings: 500 ppm active compound; after 7 days; soya bean shoots dipped
Protocol: as §1, §2, §3
Soya bean shoots (Glycine max) are treated by being dipped into the preparation of active compound of the desired concentration and are populated with Heliothis virescens caterpillars while the leaves are still moist.
as §4

[6] = system: caterpillars of the diamondback moth (Plutella xylostella); assay: Plutella test, cabbage leaf dip (Example D); type: in vivo; settings: 500 ppm active compound; after 7 days; cabbage leaves dipped
Protocol: as §1, §2, §3
Cabbage leaves (Brassica oleracea) are treated by being dipped into the preparation of active compound of the desired concentration and are populated with caterpillars of the diamondback moth (Plutella xylostella) while the leaves are still moist.
as §4

[7] = system: caterpillars of the cotton bud worm (Heliothis armigera); assay: Heliothis armigera test (Example A); type: in vivo; settings: 500 ppm active compound; after 7 days; soya bean shoots dipped
Protocol: as §1, §2, §3
Soya bean shoots (Glycine max) are treated by being dipped into the preparation of active compound of the desired concentration and are populated with caterpillars of the cotton bud worm (Heliothis armigera) while the leaves are still moist.
as §4

chromatographic logP [1]: 1.78
SMILES: Cn1nnnc1CC(=O)c1ccc(Cl)cc1 [2-(1-methyltetrazol-5-yl)-4′-chloroacetophenone]

chromatographic logP [1]: 2.03
SMILES: Cn1nnc(CC(=O)c2ccc(Cl)cc2)n1 [2-(2-methyltetrazol-5-yl)-4′-chloroacetophenone]

chromatographic logP [1]: 1.81
SMILES: Cc1nnnn1CC(=O)c1ccc(Cl)cc1 [2-(5-methyltetrazol-1-yl)-4′-chloroacetophenone]

chromatographic logP [1]: 2.14
SMILES: Cc1nnn(CC(=O)c2ccc(Cl)cc2)n1 [2-(5-methyltetrazol-2-yl)-4′-chloroacetophenone]

chromatographic logP [1]: 1.44
SMILES: O=C(Cc1nn[nH]n1)c1ccc(Cl)cc1 [2-tetrazol-5-yl-4′-chloroacetophenone]

chromatographic logP [1]: 1.77
SMILES: Cc1nnc(C2CNN=C2c2ccc(Cl)cc2)s1 (centres unmarked) [3-(4-chlorophenyl)-4-(2-methyl-1,3,4-thiadiazol-5-yl)-4,5-dihydro-1H-pyrazole]

chromatographic logP [1]: 1.67
SMILES: Cn1nnc(C2CNN=C2c2ccc(Cl)cc2)n1 (centres unmarked) [3-(4-chlorophenyl)-4-(2-methyltetrazol-5-yl)-4,5-dihydro-1H-pyrazole]

chromatographic logP [1]: 2.11
SMILES: Cc1nnn(C2CNN=C2c2ccc(Cl)cc2)n1 (centres unmarked) [3-(4-chlorophenyl)-4-(5-methyltetrazol-2-yl)-4,5-dihydro-1H-pyrazole]

chromatographic logP [1]: 4
SMILES: Cc1nnn(C2CN(C(=O)Nc3ccc(OC(F)(F)F)cc3)N=C2c2ccc(Cl)cc2)n1 (centres unmarked) [Example 1, N-(4-trifluoromethoxy)-3-(4-chlorophenyl)-4-(5-methyltetrazol-2-yl)-4,5-dihydro-1-pyrazolecarboxanilide]
kill [2]: 100%
kill [3]: 100%
kill [4]: 100%
kill [5]: 100%
kill [6]: 100%

chromatographic logP [1]: 3.68
SMILES: Cc1nnn(C2CN(C(=O)N(CC#N)c3ccc(OC(F)(F)F)cc3)N=C2c2ccc(Cl)cc2)n1 (centres unmarked) [Example 2, N-cyanomethyl-N-trifluoromethoxy-3-(4-chlorophenyl)-4-(5-methyltetrazol-2-yl)-4,5-dihydro-1-pyrazolecarboxanilide]
kill [2]: 100%
kill [3]: 100%
kill [4]: 100%
kill [6]: 100%
kill [7]: 100%

chromatographic logP [1]: 3.77
SMILES: Cc1nnc(C2CN(C(=O)Nc3ccc(OC(F)(F)F)cc3)N=C2c2ccc(Cl)cc2)s1 (centres unmarked) [Example 4, N-(4-trifluoromethoxy)-3-(4-chlorophenyl)-4-(5-methyl-1,3,4-thiadiazol-2-yl)-4,5-dihydro-1-pyrazolecarboxanilide]
kill [2]: 100%
kill [3]: 100%
kill [4]: 100%
kill [6]: 100%
kill [7]: 100%
